This is an account of results in ChEMBL document CHEMBL1201862, “PubChem BioAssay data set” (2004).

Molecules are shown by their SMILES.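 Dose response: 5 concentrations. Exposure: 48 h. Format: 96-well plates. Endpoint: linear interpolation; highest concentration if not reached. At the GI50, growth is halved.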 Activity calls are given as the source filed them. Cut-off read from the data, not from the text of the source: active = GI50 up to about 1.1 µM and inactive = higher.

Among the test systems are RPMI-8226; CCRF-CEM; HCT-15; NCI-H522; NCI/ADR-RES; SNB-19; A498; EKVX; HCT-116; SK-MEL-28; HOP-92; SW-620; HT-29; DU-145; 786-0; MDA-MB-435; SNB-75; MDA-MB-231; OVCAR-3; SR.
Common to all, as to experiment: NCI tumour cell line growth inhibition, 48 h

For `CC1CC2(OC2C)C(=O)OC2CCN(C)C/C=C(/COC(=O)C1(C)O)C2=O` (stereo not drawn), the GI50 is > 100 µM (inactive) in the experiment with RPMI-8226; > 100 µM (inactive) with CCRF-CEM; > 100 µM in the experiment with HCT-15; > 100 µM (inactive) in the experiment on NCI-H522; > 100 µM (inactive) in the experiment on NCI/ADR-RES; > 100 µM (inactive) with SNB-19. The GI50 with A498, in the experiment on EKVX, in the experiment with HCT-116, with SK-MEL-28, with HOP-92 and with SW-620 was > 100 µM (inactive) throughout. Besides, the GI50 in the experiment on HT-29, with DU-145, with 786-0, in the experiment on MDA-MB-435, in the experiment with SNB-75 and in the experiment with MDA-MB-231 was > 100 µM (inactive) in each case. The GI50 in the experiment with OVCAR-3 was > 100 µM (inactive).
`O=C1CCCCC/C1=C\c1cccc(Cl)c1`: the GI50 with RPMI-8226 was 20 µM (inactive); in the experiment on CCRF-CEM, 4.06 µM (inactive); in the experiment on HCT-15 it was 32.2 µM; in the experiment on NCI-H522, 39.2 µM (inactive); with SNB-19, > 100 µM (inactive); in the experiment with A498 it was > 100 µM (inactive). For the same molecule, the GI50 in the experiment on EKVX is 50.9 µM (inactive); in the experiment on HCT-116, 40.2 µM (inactive); in the experiment on SK-MEL-28, 49.4 µM (inactive); with HOP-92 it was 35.6 µM (inactive); in the experiment with SW-620, 20.8 µM (inactive); in the experiment on HT-29, 38.6 µM (inactive). Further, the GI50 is > 100 µM (inactive) in the experiment with DU-145; 41.1 µM (inactive) in the experiment on 786-0; 31 µM (inactive) in the experiment on MDA-MB-435; 48.5 µM (inactive) in the experiment with SNB-75; > 100 µM (inactive) in the experiment with MDA-MB-231; 71.3 µM (inactive) in the experiment on OVCAR-3. Besides, the GI50 with SR is 20.4 µM (inactive).
For the molecule `COc1ccc(C2CC(c3c(O)ccc4ccccc34)=NN2c2ccc([N+](=O)[O-])cc2[N+](=O)[O-])cc1OC` (stereo not drawn), the GI50 is 3.87 µM (inactive) with RPMI-8226; 6.03 µM (inactive) in the experiment on CCRF-CEM; 27 µM in the experiment with HCT-15; 2.46 µM (inactive) with NCI-H522; 3.66 µM (inactive) in the experiment on NCI/ADR-RES; 15.3 µM (inactive) in the experiment on SNB-19. Also, the GI50 is 7.18 µM (inactive) with A498; 14 µM (inactive) in the experiment on EKVX; 15.8 µM (inactive) in the experiment with HCT-116; 34.2 µM (inactive) with SK-MEL-28; 19.4 µM (inactive) in the experiment on HOP-92; 39.9 µM (inactive) in the experiment with SW-620. Besides, the GI50 was 10.6 µM (inactive) in the experiment with HT-29; 30.3 µM (inactive) in the experiment with DU-145; 29 µM (inactive) in the experiment on 786-0; 24 µM (inactive) in the experiment with MDA-MB-435; 20.7 µM (inactive) in the experiment with SNB-75; 20.9 µM (inactive) in the experiment on MDA-MB-231. Further, the GI50 in the experiment on OVCAR-3 was 12.1 µM (inactive).
Turning to `CCOC(=O)c1ccc(C(=O)OCC)n1-c1cc2cc(c1)CSCc1cc(cc(-n3c(C(=O)OCC)ccc3C(=O)OCC)c1)CSC2`, the GI50 is > 10 µM (inactive) with RPMI-8226; > 10 µM (inactive) in the experiment with CCRF-CEM; > 10 µM in the experiment on HCT-15; > 10 µM (inactive) in the experiment with NCI-H522; > 10 µM (inactive) with NCI/ADR-RES; > 10 µM (inactive) in the experiment on SNB-19. Also, the GI50 in the experiment with EKVX, with HCT-116, in the experiment with SK-MEL-28, in the experiment on HOP-92, in the experiment with SW-620 and with HT-29 was > 10 µM (inactive) throughout. Also, the GI50 with DU-145, in the experiment on 786-0, with MDA-MB-435, in the experiment with SNB-75, with MDA-MB-231 and in the experiment with OVCAR-3 was > 10 µM (inactive) in each case. Besides, the GI50 in the experiment with SR is > 10 µM (inactive).
As to `COc1ccc(/C=C2\NC(=S)N(/C=C3\C(=O)Oc4ccccc4C3=O)C2=O)cc1OC`, the GI50 in the experiment on RPMI-8226 was > 100 µM (inactive); in the experiment with CCRF-CEM, 45 µM (inactive); in the experiment on HCT-15 it was 93.5 µM; with NCI-H522, 22.6 µM (inactive); in the experiment with NCI/ADR-RES, > 100 µM (inactive); in the experiment on SNB-19 it was > 100 µM (inactive). Besides, the GI50 in the experiment on A498 was 54 µM (inactive); in the experiment on EKVX, 54.5 µM (inactive); with HCT-116 it was > 100 µM (inactive); in the experiment with HOP-92, 73.6 µM (inactive); in the experiment on SW-620, > 100 µM (inactive); with HT-29, > 100 µM (inactive). Also, the GI50 with DU-145 is > 100 µM (inactive); with 786-0 it was > 100 µM (inactive); in the experiment with MDA-MB-435, > 100 µM (inactive); in the experiment with SNB-75, 32.4 µM (inactive); in the experiment on MDA-MB-231, > 100 µM (inactive); in the experiment with OVCAR-3, 87.3 µM (inactive).
In the case of `C/C(=N/OC(=O)c1cccc2c(=O)c3ccccc3[nH]c12)[C@H]1CC[C@H]2[C@@H]3CCC4=C/C(=N/OC(=O)c5cccc6c(=O)c7ccccc7[nH]c56)CC[C@]4(C)[C@H]3CC[C@]12C`, the GI50 was 2.9 µM (inactive) in the experiment with RPMI-8226; 2.4 µM (inactive) in the experiment on CCRF-CEM; 14 µM in the experiment on HCT-15; 12.3 µM (inactive) with NCI-H522; 20.4 µM (inactive) in the experiment with NCI/ADR-RES; 18.2 µM (inactive) with SNB-19. The GI50 is 10.6 µM (inactive) in the experiment on EKVX; 12.5 µM (inactive) in the experiment with HCT-116; 21.3 µM (inactive) in the experiment on HOP-92; 13.9 µM (inactive) with SW-620; 13.5 µM (inactive) in the experiment with HT-29; 22.7 µM (inactive) in the experiment on DU-145. For the same molecule, the GI50 in the experiment with 786-0 is 18.5 µM (inactive); in the experiment with MDA-MB-435, 15.5 µM (inactive); in the experiment with SNB-75, 29.9 µM (inactive); with MDA-MB-231, 14.3 µM (inactive); in the experiment on OVCAR-3, 17.1 µM (inactive); in the experiment on SR, 3.61 µM (inactive).
On to `NS(=O)(=O)c1cc2c(cc1Cl)N=C(CCC(=O)O)NS2(=O)=O`, for which the GI50 in the experiment with RPMI-8226 is > 100 µM (inactive); in the experiment on HCT-15 it was > 100 µM; in the experiment with NCI-H522 it was > 100 µM (inactive); with NCI/ADR-RES, > 100 µM (inactive); in the experiment on SNB-19, > 100 µM (inactive); in the experiment on A498 it was > 100 µM (inactive). The GI50 in the experiment with EKVX, in the experiment with HCT-116, in the experiment with SK-MEL-28, with HOP-92, in the experiment on SW-620 and with HT-29 was > 100 µM (inactive) each time. For the same molecule, the GI50 in the experiment on DU-145, with 786-0, with MDA-MB-435, in the experiment on SNB-75, in the experiment on MDA-MB-231 and in the experiment with OVCAR-3 was > 100 µM (inactive) in each case.
`COC(=O)C(C)(C)[C@@H]1OC(=O)N(S(=O)(=O)c2c(C)cc(C)cc2C)[C@H]1C(C)C`: the GI50 in the experiment on RPMI-8226 is > 100 µM (inactive); with CCRF-CEM it was 75.9 µM (inactive); in the experiment on HCT-15, > 100 µM; with NCI-H522, > 100 µM (inactive); in the experiment on NCI/ADR-RES, > 100 µM (inactive); with SNB-19 it was > 100 µM (inactive). For the same molecule, the GI50 was > 100 µM (inactive) with EKVX; 52.8 µM (inactive) in the experiment with HCT-116; > 100 µM (inactive) in the experiment on SK-MEL-28; 23.1 µM (inactive) in the experiment on HOP-92; 82.2 µM (inactive) in the experiment on SW-620; 65.8 µM (inactive) in the experiment with HT-29. For the same molecule, the GI50 in the experiment on DU-145 was > 100 µM (inactive); in the experiment with 786-0, > 100 µM (inactive); with MDA-MB-435 it was > 100 µM (inactive); with SNB-75, 41 µM (inactive); with MDA-MB-231 it was > 100 µM (inactive); in the experiment with OVCAR-3, 89.9 µM (inactive). Moreover, the GI50 in the experiment on SR is 75.7 µM (inactive).
As to `CC(=N/NC(=S)N1CCCCC1)/C(=N\NC(=S)N1CCCCC1)c1ccccc1`, the GI50 with RPMI-8226 was 3.36 µM (inactive); in the experiment on HCT-15, 2.1 µM; in the experiment with NCI-H522, 2.23 µM (inactive); with NCI/ADR-RES, 2.65 µM (inactive); with SNB-19, 1.87 µM (inactive); with A498, 1.3 µM (inactive). The GI50 in the experiment with EKVX was 1.89 µM (inactive); in the experiment with HCT-116 it was 2.53 µM (inactive); with SK-MEL-28, 2.09 µM (inactive); in the experiment on HOP-92, 1.9 µM (inactive); with SW-620, 2.15 µM (inactive); with HT-29, 2.1 µM (inactive). Besides, the GI50 in the experiment on DU-145 is 0.512 µM (active); in the experiment with 786-0, 1.99 µM (inactive); with MDA-MB-435, 2.08 µM (inactive); in the experiment on SNB-75, 1.91 µM (inactive); with MDA-MB-231 it was 2.7 µM (inactive); in the experiment on OVCAR-3, 1.65 µM (inactive).
Regarding `CCNC1CC(C(C)(C)NCC)CC=C1C` (stereo not drawn), the GI50 in the experiment with CCRF-CEM was > 100 µM (inactive); in the experiment on HCT-15 it was > 100 µM; in the experiment on NCI-H522, > 100 µM (inactive); in the experiment with NCI/ADR-RES, > 100 µM (inactive); with SNB-19, > 100 µM (inactive); with EKVX, > 100 µM (inactive). Also, the GI50 in the experiment with HCT-116, with SK-MEL-28, in the experiment with HOP-92, with SW-620, in the experiment on HT-29 and with DU-145 was > 100 µM (inactive) throughout. In addition, the GI50 in the experiment with 786-0, in the experiment with MDA-MB-435, with SNB-75, in the experiment on MDA-MB-231, in the experiment with OVCAR-3 and in the experiment on SR was > 100 µM (inactive) each time.
For the molecule `O=P(O)(O)CC1OC(CO)C(O)C1O` (stereo not drawn), the GI50 in the experiment with CCRF-CEM is > 100 µM (inactive); in the experiment with HCT-15, > 100 µM; in the experiment on NCI-H522, > 100 µM (inactive); with NCI/ADR-RES it was > 100 µM (inactive); in the experiment on SNB-19, > 100 µM (inactive); in the experiment with A498, > 100 µM (inactive). In addition, the GI50 with EKVX, in the experiment on HCT-116, in the experiment on SK-MEL-28, with HOP-92, with SW-620 and in the experiment with HT-29 was > 100 µM (inactive) in each case. For the same molecule, the GI50 with DU-145, with 786-0, with MDA-MB-435, in the experiment on SNB-75, in the experiment with MDA-MB-231 and in the experiment with OVCAR-3 was > 100 µM (inactive) throughout.
